Experimental findings from US8163793B2, “Proline derivatives” (Hoffman-La Roche Inc., priority 2009, dated 2012) are described below.

The target in one assay is Cat L (UniProt P07711). Nature of the assay: Cathepsin enzyme inhibition assay (fluorogenic peptide substrate Z-Val-Val-Arg-AMC), Cathepsin L. It is filed as biochemical, human and mouse. The conditions noted are these: enzyme 1 nM, substrate 20 μM, pH 6.5; read-out: CatL IC50. Here is the method: Cathepsin Enzyme Inhibition Assay
Enzyme activity is measured by observing the increase in fluorescence intensity caused by cleavage of a peptide substrate containing a fluorophore whose emission is quenched in the intact peptide.
Assay buffer: 100 mM potassium phosphate pH 6.5, EDTA-Na 5 mM, Triton X-100 0.001%, DDT 5 mM.
Enzymes (all at 1 nM): human and mouse Cathepsin S, Cat K, Cat B, Cat L Substrate (20 μM): Z-Val-Val-Arg-AMC, except for Cat K which uses Z-Leu-Arg-AMC (both from Bachem).
AMC=7-Amino-4-Methyl-Coumarin.
Excitation 360 nm, Emission 465 nm.
Enzyme is added to the substance dilutions in 96-well microtitre plates and the reaction is started with substrate. Fluorescence emission is measured over 20 minutes, during which time a linear increase is observed in the absence of inhibitor. IC50 are calculated by standard methods. The results are expressed in μM in the following table.

For the next assay, the target named is Cathepsin S (UniProt P25774). Nature of the assay: Cathepsin enzyme inhibition assay (fluorogenic peptide substrate Z-Val-Val-Arg-AMC), Cathepsin S. The class given is biochemical, human and mouse. The conditions noted are these: enzyme 1 nM, substrate 20 μM, pH 6.5; read-out: CatS IC50. Summed up: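 Compounds were combined with 1 nM human or mouse enzyme, and substrate then started the reaction. The buffer was potassium phosphate (100 mM, pH 6.5) containing EDTA-Na 5 mM, Triton X-100 0.001% and […] 5 mM.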

Counter-ions that a name gives are not always drawn.

Consider `N#CC1(NC(=O)[C@@H]2C[C@@H](S(=O)(=O)c3ccc(-n4ccccc4=O)cc3C(F)(F)F)CN2)CC1` [Example 31, (2S,4R)-4-[4-(2-Oxo-2H-pyridin-1-yl)-2-trifluoromethyl-benzenesulfonyl]-pyrrolidine-2-carboxylic acid (1-cyano-cyclopropyl)-amide hydrochloride], for which the IC50 was at least 25 µM on Cat L and 2 nM on Cathepsin S.
The corresponding values for `N#CC1(NC(=O)[C@@H]2C[C@@H](S(=O)(=O)c3ccc(-n4ccncc4=O)cc3C(F)(F)F)CN2)CC1` [Example 32, (2S,4R)-4-[4-(2-Oxo-2H-pyrazin-1-yl)-2-trifluoromethyl-benzenesulfonyl]-pyrrolidine-2-carboxylic acid (1-cyano-cyclopropyl)-amide hydrochloride] are at least 25 µM and 5 nM.
As to `CC(C)(C#N)NC(=O)[C@@H]1C[C@@H](S(=O)(=O)c2ccccc2Cl)CN1C(=O)OC(C)(C)C` [Example 33, (2S,4R)-4-(2-Chloro-benzenesulfonyl)-2-[(cyano-dimethyl-methyl)-carbamoyl]-pyrrolidine-1-carboxylic acid tert-butyl ester], the IC50 was at least 25 µM on Cat L and 675 nM at Cathepsin S.
In the same order, the values of `CC(C)(C)OC(=O)N1C[C@H](S(=O)(=O)c2ccccc2Cl)C[C@H]1C(=O)NC1(C#N)CCC1` [Example 34, (2S,4R)-4-(2-Chloro-benzenesulfonyl)-2-(1-cyano-cyclobutylcarbamoyl)-pyrrolidine-1-carboxylic acid tert-butyl ester] are at least 25 µM and 766 nM.
As to `CC(C)(C)OC(=O)N1C[C@H](S(=O)(=O)c2ccccc2Cl)C[C@H]1C(=O)NC1(C#N)CCCCC1` [Example 35, (2S,4R)-4-(2-Chloro-benzenesulfonyl)-2-(1-cyano-cyclohexylcarbamoyl)-pyrrolidine-1-carboxylic acid tert-butyl ester], the values for the IC50 at Cat L and on Cathepsin S were at least 25 µM and 4100 nM, respectively.
As to `CC(C)(C)OC(=O)N1C[C@H](S(=O)(=O)c2ccccc2Cl)C[C@H]1C(=O)NC(C#N)c1ccccc1` (stereo partly drawn) [Example 36, (2S,4R)-4-(2-Chloro-benzenesulfonyl)-2-[(cyano-phenyl-methyl)-carbamoyl]-pyrrolidine-1-carboxylic acid tert-butyl ester], the IC50 on Cat L came out at 1.27 µM; at Cathepsin S, 0.5 nM.
For `CC(C)(C)OC(=O)N1C[C@H](S(=O)(=O)c2ccccc2Cl)C[C@H]1C(=O)NC(C)(C#N)c1ccccc1` (stereo partly drawn) [Example 37, (2S,4R)-4-(2-Chloro-benzenesulfonyl)-2-[(cyano-methyl-phenyl-methyl)-carbamoyl]-pyrrolidine-1-carboxylic acid tert-butyl ester], the IC50 at Cat L was at least 25 µM; on Cathepsin S it was 1030 nM.
The corresponding values for `CC(C)(C)OC(=O)N1C[C@H](S(=O)(=O)c2ccccc2C(F)(F)F)C[C@H]1C(=O)NC(C#N)C1CC1` (stereo partly drawn) [Example 38, (2S,4R)-2-[(Cyano-cyclopropyl-methyl)-carbamoyl]-4-(2-trifluoromethyl-benzenesulfonyl)-pyrrolidine-1-carboxylic acid tert-butyl ester] are at least 25 µM and 5 nM.
As for `Cc1ccc(S(=O)(=O)[C@@H]2C[C@@H](C(=O)NC3(C#N)CC3)N(C(=O)OC(C)(C)C)C2)c(C)c1` [Example 39, (2S,4R)-2-(1-Cyano-cyclopropylcarbamoyl)-4-(2,4-dimethyl-benzenesulfonyl)-pyrrolidine-1-carboxylic acid tert-butyl ester], the IC50 on Cat L was found to be 50.2 µM; on Cathepsin S it was 2.2 nM.
The corresponding values for `Cc1cc(Cl)ccc1S(=O)(=O)[C@@H]1C[C@@H](C(=O)NC2(C#N)CC2)N(C(=O)OC(C)(C)C)C1` [Example 40, (2S,4R)-4-(4-Chloro-2-methyl-benzenesulfonyl)-2-(1-cyano-cyclopropylcarbamoyl)-pyrrolidine-1-carboxylic acid tert-butyl ester] are 41.4 µM and 5.2 nM.
As to `CC(C)(C)OC(=O)N1C[C@H](S(=O)(=O)c2cccc(Cl)c2Cl)C[C@H]1C(=O)NC1(C#N)CC1` [Example 41, (2S,4R)-2-(1-Cyano-cyclopropylcarbamoyl)-4-(2,3-dichloro-benzenesulfonyl)-pyrrolidine-1-carboxylic acid tert-butyl ester], the concentration for half-maximal inhibition (IC50) at Cat L was at least 25 µM; on Cathepsin S, 31.2 nM.
With `N#CC1(NC(=O)[C@@H]2C[C@@H](S(=O)(=O)c3ccccc3C(F)(F)F)CN2)CC1` [Example 43, (2S,4R)-4-(2-Trifluoromethyl-benzenesulfonyl)-pyrrolidine-2-carboxylic acid (1-cyano-cyclopropyl)-amide], the IC50 was at least 25 µM on Cat L and 2.2 nM at Cathepsin S.
Take `CC(C)(C#N)NC(=O)[C@@H]1C[C@@H](S(=O)(=O)c2ccccc2Cl)CN1` [Example 44, (2S,4R)-4-(2-Chloro-benzenesulfonyl)-pyrrolidine-2-carboxylic acid (cyano-dimethyl-methyl)-amide Hydrochloride]: the IC50 at Cat L is at least 25 µM; at Cathepsin S it was 152 nM.
For `N#CC1(NC(=O)[C@@H]2C[C@@H](S(=O)(=O)c3ccccc3Cl)CN2)CCC1` [Example 45, (2S,4R)-4-(2-Chloro-benzenesulfonyl)-pyrrolidine-2-carboxylic acid (1-cyano-cyclobutyl)-amide Hydrochloride], the figures for the IC50 at Cat L and at Cathepsin S were at least 25 µM and 378 nM, respectively.
In the same order, the values of `N#CC1(NC(=O)[C@@H]2C[C@@H](S(=O)(=O)c3ccccc3Cl)CN2)CCCCC1` [Example 46, (2S,4R)-4-(2-Chloro-benzenesulfonyl)-pyrrolidine-2-carboxylic acid (1-cyano-cyclohexyl)-amide Hydrochloride] are at least 25 µM and 208 nM.
Turning to `CC(C#N)(NC(=O)[C@@H]1C[C@@H](S(=O)(=O)c2ccccc2Cl)CN1)c1ccccc1` (stereo partly drawn) [Example 48, (2S,4R)-4-(2-Chloro-benzenesulfonyl)-pyrrolidine-2-carboxylic acid (cyano-methyl-phenyl-methyl)-amide Hydrochloride], the figures for the IC50 at Cat L and on Cathepsin S were at least 25 µM and 235 nM, respectively.
As for `Cc1ccc(S(=O)(=O)[C@H]2CN[C@H](C(=O)NC3(C#N)CC3)C2)c(C)c1` [Example 49, (2S,4R)-4-(2,4-Dimethyl-benzenesulfonyl)-pyrrolidine-2-carboxylic acid (1-cyano-cyclopropyl)-amide Hydrochloride], the IC50 amounted to 6.92 µM at Cat L and 1.8 nM on Cathepsin S.
Regarding `Cc1cc(Cl)ccc1S(=O)(=O)[C@H]1CN[C@H](C(=O)NC2(C#N)CC2)C1` [Example 50, (2S,4R)-4-(4-Chloro-2-methyl-benzenesulfonyl)-pyrrolidine-2-carboxylic acid (1-cyano-cyclopropyl)-amide Hydrochloride], the figures for the IC50 on Cat L and on Cathepsin S were 8.77 µM and 4.4 nM, respectively.
Turning to `N#CC1(NC(=O)[C@@H]2C[C@@H](S(=O)(=O)c3cccc(Cl)c3Cl)CN2)CC1` [Example 51, (2S,4R)-4-(2,3-Dichloro-benzenesulfonyl)-pyrrolidine-2-carboxylic acid (1-cyano-cyclopropyl)-amide Hydrochloride], the 50% inhibitory concentration (IC50) was at least 25 µM on Cat L and 26 nM on Cathepsin S.
For `N#CCNC(=O)[C@@H]1C[C@@H](S(=O)(=O)c2ccccc2)CN1C(=O)c1ccccc1` [Example 52, (2S,4R)-4-Benzenesulfonyl-1-benzoyl-pyrrolidine-2-carboxylic acid cyanomethyl-amide], the IC50 at Cat L is at least 25 µM; on Cathepsin S, 14 nM.
For the molecule `N#CCNC(=O)[C@@H]1C[C@@H](S(=O)(=O)c2ccccc2)CN1C(=O)C1CCCCC1` [Example 53, (2S,4R)-4-Benzenesulfonyl-1-cyclohexanecarbonyl-pyrrolidine-2-carboxylic acid cyanomethyl-amide], the results for the 50% inhibitory concentration (IC50) at Cat L and on Cathepsin S were at least 25 µM and 5.2 nM, respectively.
The corresponding values for `N#CCNC(=O)[C@@H]1C[C@@H](S(=O)(=O)c2ccccc2)CN1Cc1ccccc1` [Example 54, (2S,4R)-4-Benzenesulfonyl-1-benzyl-pyrrolidine-2-carboxylic acid cyanomethyl-amide] are 5.34 µM and 210 nM.
In the case of `N#CCNC(=O)[C@@H]1C[C@@H](S(=O)(=O)c2ccccc2)CN1CC1CCCCC1` [Example 55, (2S,4R)-4-Benzenesulfonyl-1-cyclohexylmethyl-pyrrolidine-2-carboxylic acid cyanomethyl-amide], the IC50 is at least 25 µM on Cat L and 14.8 nM on Cathepsin S.
As for `N#CCNC(=O)[C@@H]1C[C@@H](S(=O)(=O)c2ccccc2)CN1C(c1ccccc1)C(F)(F)F` (stereo partly drawn) [Example 56, (2S,4R)-4-Benzenesulfonyl-1-(2,2,2-trifluoro-1-phenyl-ethyl)-pyrrolidine-2-carboxylic acid cyanomethyl-amide], the IC50 on Cat L was at least 25 µM; at Cathepsin S, 42.7 nM.
Consider `N#CCNC(=O)[C@@H]1C[C@@H](S(=O)(=O)c2ccccc2Cl)CN1C(c1ccccc1)C(F)(F)F` (stereo partly drawn) [Example 57, (2S,4R)-4-(2-Chloro-benzenesulfonyl)-1-(2,2,2-trifluoro-1-phenyl-ethyl)-pyrrolidine-2-carboxylic acid cyanomethyl-amide], for which the results for the IC50 on Cat L and on Cathepsin S were 17 µM and 14.3 nM, respectively.

By IC50 is commonly meant the concentration at which inhibition is half-maximal.
